Reference: patent publication US6894034B1, “Sebum production inhibitors” (Maruha Corporation, priority 1999, dated 2005)

Tested on: male hamster auricular skin tissue sections containing sebaceous glands
Assay: Sebum production inhibitory effect on hamster auricular skin tissue sections (radiolabeled acetate incorporation, method of Hall et al.)
Type: cell-based
Settings: cultured 3 hours in Krebs-Ringer phosphate buffer, vs left auricula control
Method: Compounds of the present invention (Compound Nos. 1-10) were evaluated for sebum production inhibitory effect on hamster auricular skin tissue sections containing sebaceous glands.
The method of Hall et al. (Hall, D. W. R., Van den Hoven, W. E., Noordzij-Kamermans, N. J., Jaitly, K. D., Arch. Dermatol. Res., 275, 1 (1983)) was followed. Namely, male hamster auricular skin tissue sections (3 mm in diameter) containing sebaceous glands were cultured for 3 hours in Krebs-Ringer phosphate buffer containing radioactively labeled sodium acetate, and then tissues were hydrolyzed and extracted with hexane. The radioactively labeled fat levels in hexane were measured in a liquid scintillation counter to determine fat production inhibition levels in sebaceous glands. Skin tissues isolated from the right auricula were cultured in Krebs-Ringer phosphate buffer containing 0.01% or 0.05% of compounds of the present invention (Compound Nos. 1-10) (compound systems), while skin tissues from the left auricula of the same hamster were cultured in Krebs-Ringer phosphate buffer containing no compounds of the present invention (control system). The sebum production inhibition percentage was calculated by the equation below from the test data obtained. Sebum production inhibition (%)=[(Sebum production level in control system)−(Sebum production level in each compound system)]/(Sebum production level in control system)×100

[1] = Concentration of compound in the medium 0.01%
[2] = Concentration of compound in the medium 0.05%

Row | SMILES | Sebum production inhibition (%) [1] | Sebum production inhibition (%) [2]
1 | CC(=O)N[C@@H]1[C@@H](O[C@@H]2O[C@H](C(=O)O)[C@@H](O[C@@H]3O[C@H](CO)[C@@H](O)[C@H](O[C@@H]4OC(C(=O)O)=C[C@H](O)[C@H]4O)[C@H]3NC(C)=O)[C@H](O)[C@H]2O)[C@H](O)[C@@H](CO)O[C@H]1O [compound 1, 4-deoxy-α-L-threo-hexa-4-enepyranuronosyl-(1→3)-O-2-acetamide-2-deoxy-β-D-glucopyranosyl-(1→4)-3-O-β-D-glucopyranuronosyl-(1→3)-O-2-acetamide-2-deoxy-β-D-glucopyranose] | 15.7% | 17.8%
2 | CC(=O)N[C@@H]1[C@@H](O[C@@H]2O[C@H](C(=O)O)[C@@H](O[C@@H]3O[C@H](CO)[C@@H](O)[C@H](O[C@@H]4O[C@H](C(=O)O)[C@@H](O[C@@H]5O[C@H](CO)[C@@H](O)[C@H](O[C@@H]6OC(C(=O)O)=C[C@H](O)[C@H]6O)[C@H]5NC(C)=O)[C@H](O)[C@H]4O)[C@H]3NC(C)=O)[C@H](O)[C@H]2O)[C@H](O)[C@@H](CO)O[C@H]1O [compound 2, 4-deoxy-α-L-threo-hexa-4-enepyranuronosyl-(1→3)-O-2-acetamide-2-deoxy-β-D-glucopyranosyl-(1→4)-3-O-β-D-glucopyranuronosyl-(1→3)-O-2-acetamide-2-deoxy-β-D-glucopyranosyl-(1→4)-3-O-β-D-glucopyranuronosyl-(1→3)-O-2-acetamide-2-deoxy-β-D-glucopyranose] | 28.6% | 50.1%
3 | CC(=O)N[C@@H]1[C@@H](O[C@@H]2O[C@H](C(=O)O)[C@@H](O[C@@H]3O[C@H](CO)[C@@H](O)[C@H](O[C@@H]4O[C@H](C(=O)O)[C@@H](O[C@@H]5O[C@H](CO)[C@@H](O)[C@H](O[C@@H]6O[C@H](C(=O)O)[C@@H](O[C@@H]7O[C@H](CO)[C@@H](O)[C@H](O[C@@H]8OC(C(=O)O)=C[C@H](O)[C@H]8O)[C@H]7NC(C)=O)[C@H](O)[C@H]6O)[C@H]5NC(C)=O)[C@H](O)[C@H]4O)[C@H]3NC(C)=O)[C@H](O)[C@H]2O)[C@H](O)[C@@H](CO)O[C@H]1O [compound 3, 4-deoxy-α-L-threo-hexa-4-enepyranuronosyl-(1→3)-O-2-acetamide-2-deoxy-β-D-glucopyranosyl-(1→4)-3-O-β-D-glucopyranuronosyl-(1→3)-O-2-acetamide-2-deoxy-β-D-glucopyranosyl-(1→4)-3-O-β-D-glucopyranuronosyl-(1→3)-O-2-acetamide-2-deoxy-β-D-glucopyranosyl-(1→4)-3-O-β-D-glucopyranuronosyl-(1→3)-O-2-acetamide-2-deoxy-β-D-glucopyranose] | 48.5% | 47.7%
4 | CC(=O)N[C@@H]1[C@@H](O[C@@H]2O[C@H](C(=O)O)[C@@H](O[C@@H]3O[C@H](CO)[C@@H](O)[C@H](O[C@@H]4O[C@H](C(=O)O)[C@@H](O[C@@H]5O[C@H](CO)[C@@H](O)[C@H](O[C@@H]6O[C@H](C(=O)O)[C@@H](O[C@@H]7O[C@H](CO)[C@@H](O)[C@H](O[C@@H]8O[C@H](C(=O)O)[C@@H](O[C@@H]9O[C@H](CO)[C@@H](O)[C@H](O[C@@H]%10OC(C(=O)O)=C[C@H](O)[C@H]%10O)[C@H]9NC(C)=O)[C@H](O)[C@H]8O)[C@H]7NC(C)=O)[C@H](O)[C@H]6O)[C@H]5NC(C)=O)[C@H](O)[C@H]4O)[C@H]3NC(C)=O)[C@H](O)[C@H]2O)[C@H](O)[C@@H](CO)O[C@H]1O [compound 4] | 53.4% | 51.0%
5 | CC(=O)N[C@H]1[C@H](O[C@H]2[C@H](O)[C@@H](O)[C@H](O[C@@H]([C@H](O)[C@H](O)CO)[C@H](CO)NC(C)=O)O[C@@H]2C(=O)O)O[C@H](CO)[C@@H](O)[C@@H]1O[C@@H]1OC(C(=O)O)=C[C@H](O)[C@H]1O [compound 5, 4-deoxy-α-L-threo-hexa-4-enepyranuronosyl-(1→3)-O-2-acetamide-2-deoxy-β-D-glucopyranosyl-(1→4)-3-O-β-D-glucopyranuronosyl-(1→3)-O-2-acetamide-2-deoxy-β-D-glucopyranitol] | 16.2% | 18.1%
6 | CC(=O)N[C@H]1[C@H](O[C@H]2[C@H](O)[C@@H](O)[C@H](O[C@@H]([C@H](O)[C@H](O)CO)[C@H](CO)NC(C)=O)O[C@@H]2C(=O)O)O[C@H](CO)[C@@H](O)[C@@H]1O[C@@H]1O[C@H](C(=O)O)[C@@H](O[C@@H]2O[C@H](CO)[C@@H](O)[C@H](O[C@@H]3OC(C(=O)O)=C[C@H](O)[C@H]3O)[C@H]2NC(C)=O)[C@H](O)[C@H]1O [compound 6, 4-deoxy-α-L-threo-hexa-4-enepyranuronosyl-(1→3)-O-2-acetamide-2-deoxy-β-D-glucopyranosyl-(1→4)-3-O-β-D-glucopyranuronosyl-(13)-O-2-acetamide-2-deoxy-β-D-glucopyranosyl-(1→4)-3-O-β-D-glucopyranuronosyl-(1→3)-O-2-acetamide-2-deoxy-β-D-glucopyranitol] | 30.8% | 55.7%
7 | CC(=O)N[C@H]1[C@H](O[C@H]2[C@H](O)[C@@H](O)[C@H](O)O[C@@H]2C(=O)O)O[C@H](CO)[C@@H](O)[C@@H]1O[C@@H]1OC(C(=O)O)=C[C@H](O)[C@H]1O [compound 7, 4-deoxy-α-L-threo-hexa-4-enepyranuronosyl-(1-3)-O-2-acetamide-2-deoxy-β-D-glucopyranosyl-(1→4)-3-O-β-D-glucopyranuronic acid] | 14.2% | 15.9%
8 | CC(=O)N[C@H]1[C@H](O[C@H]2[C@H](O)[C@@H](O)[C@H](O)O[C@@H]2C(=O)O)O[C@H](CO)[C@@H](O)[C@@H]1O[C@@H]1O[C@H](C(=O)O)[C@@H](O[C@@H]2O[C@H](CO)[C@@H](O)[C@H](O[C@@H]3OC(C(=O)O)=C[C@H](O)[C@H]3O)[C@H]2NC(C)=O)[C@H](O)[C@H]1O [compound 8, 4-deoxy-α-L-threo-hexa-4-enepyranuronosyl-(1-3)-O-2-acetamide-2-deoxy-β-D-glucopyranosyl-(1-4)-3-O-β-D-glucopyranuronosyl-(13)-O-2-acetamide-2-deoxy-β-D-glucopyranosyl-(1→4)-3-O-β-D-glucopyranuronic acid] | 30.7% | 56.6%
9 | CC(=O)N[C@H]1[C@H](O[C@@H]([C@H](O)[C@@H](O)CO)[C@H](O)C(=O)O)O[C@H](CO)[C@@H](O)[C@@H]1O[C@@H]1OC(C(=O)O)=C[C@H](O)[C@H]1O [compound 9, 4-deoxy-α-L-threo-hexa-4-enepyranuronosyl-(1→3)-O-2-acetamide-2-deoxy-β-D-glucopyranosyl-(1→4)-3-O-β-D-glucopyranuronitol] | 13.9% | 20.0%
10 | CC(=O)N[C@H]1[C@H](O[C@@H]([C@H](O)[C@@H](O)CO)[C@H](O)C(=O)O)O[C@H](CO)[C@@H](O)[C@@H]1O[C@@H]1O[C@H](C(=O)O)[C@@H](O[C@@H]2O[C@H](CO)[C@@H](O)[C@H](O[C@@H]3OC(C(=O)O)=C[C@H](O)[C@H]3O)[C@H]2NC(C)=O)[C@H](O)[C@H]1O [compound 10, 4-deoxy-α-L-threo-hexa-4-enepyranuronosyl-(1→3)-O-2-acetamide-2-deoxy-β-D-glucopyranosyl-(1→4)-3-O-β-D-glucopyranuronosyl-(1→3)-O-2-acetamide-2-deoxy-β-D-glucopyranosyl-(1→4)-3-O-β-D-glucopyranuronitol] | 39.8% | 55.1%
